{"source": "patent US6696280B2", "about": "“Candida geranylgeranyl-protein transferase polypetide, compositions and methods related thereto” (GPC Biotech, Inc., priority 1996, dated 2004)", "key": {"[1]": {"molecular_target": "T1, PKC1 (Saccharomyces cerevisiae, UniProt P24583)", "T1 construct": "made in house; host or cells: PKC1-HA immunoprecipitated from S. cerevisiae extract; GST-Rho1 from baculovirus-infected Sf9 cells", "experiment": "PKC1 protein kinase assay with synthetic Bck1 peptide", "assay_type": "biochemical", "conditions": "for Stimulation of PKC1 by cofactor: in the presence of GTP-bound GST-Rho1", "procedure": "(§1) FIGS. 4A-4B. Rho1 allows cofactors to activate PKC1. FIG. 4A. Phosphorylation of synthetic Bck1 peptide by PKC1^HA immunoprecipitated from 50 μg of soluble yeast cell extract protein. Recombinant GST-Rho1 or GST-Cdc42 (1 μg) was preloaded with the indicated guanine nucleotide. Cofactors (80 μg/ml PS, 8 μg/ml DAG, and 100 μM CaCl2) were added to the reaction where indicated. Lanes 1 and 2 are control reactions with no GTPase. Mean and standard error for three experiments is shown. FIG. 4B. PS alone is sufficient to stimulate PKC1 fully in the presence of Rho1. Phosphorylation of Bck1 peptide by PKC1^HA in the presence of GTPγS-bound GST-Rho1 and the indicated cofactors. Conditions were as in FIG. 4A, except for PMA (16 ng/ml). Concentrations of PS as low as 8 μg/ml fully activated PKC1 (data not shown).\n(§2) Yeast extract preparation, immunoprecipitation, immunodetection and protein kinase assays of Mpk1^HA were conducted as described previously (4). Preparation of cell extracts and immunoprecipitations for experiments with ^HARho1 were carried out as in (4) with some modifications. Lysis buffer without ρ-nitrophenyl phosphate and with 1% NP-40 was used. The extract (700 μg protein) was precleared by incubation with 20 μl of a 50% suspension of protein A-sepharose for 1 h prior to immunoprecipitation to eliminate non-specific binding of proteins to immunecomplexes. Beads were boiled in SDS-PAGE sample buffer, and samples were applied to 7.5% (for PKC1 blots) or 15% (for ^HARho1 blots) SDS-PAGE gels. For PKC1 kinase assays, all as described previously (5), except for the addition of recombinant GTPases (see below). A synthetic peptide corresponding to the sequence surrounding Ser939 of Bck1, a phosphorylation site for PKC 1, was used as substrate in PKC 1 kinase assays (5).\n(§3) Recombinant Rho1 and Cdc42. Recombinant GST-Rho 1 and GST-Cdc42 were expressed and purified from baculovirus-infected insect (Sf9) cells, as described (23). For in vitro association with PKC1^HA, GST-Rho1 was not eluted from the glutathione agarose beads used for purification. GST-Rho1-bound beads were incubated with cell extract in immunoprecipitation buffer (4) for 5 h at 4° C., followed by 3 washes with this buffer. For use in PKC1^HA protein kinase assays, GST-Rho1 and GST-Cdc42 were eluted from the beads with reduced glutathione.", "T1 sequence (P06780 2-206, one chain of several)": "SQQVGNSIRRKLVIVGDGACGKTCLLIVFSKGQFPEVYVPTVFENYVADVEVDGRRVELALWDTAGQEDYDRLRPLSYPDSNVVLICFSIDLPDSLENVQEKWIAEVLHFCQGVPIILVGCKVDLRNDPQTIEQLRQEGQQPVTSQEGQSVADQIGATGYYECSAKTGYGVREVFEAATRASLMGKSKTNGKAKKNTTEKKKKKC"}, "[2]": {"system": "rho1 mutant strains YOC752 (rho1-2), YOC729 (rho1-3), YOC755 (rho1-5)", "experiment": "Drug sensitivity of conditional rho1 mutants", "assay_type": "cell-based, Saccharomyces cerevisiae", "conditions": "23° C."}, "[3]": {"system": "1,3-β-glucan synthase", "experiment": "Reconstitution of GS activity in rho1-3 membranes", "assay_type": "biochemical, Saccharomyces cerevisiae", "conditions": "37° C., 1 μg recombinant GTPase, 50 μM GTPγS", "procedure": "FIGS. 6A-6C. GS activity from rho1 mutants (See reference of Example 3). FIG. 6A. GS activity is thermolabile in rho1^ts mutants. Crude extracts were made from cells growing at room temperature, and assayed for GS activity at the indicated temperatures in the presence of 50 μM GTPγS. FIG. 6B. Reconstitution of GS activity in rho 1-3 membranes with recombinant Rho1. GS activity in rho1-3 membrane fractions was measured at 37° C. in the presence of 1 μg of the indicated recombinant GTPase and 50 μM GTPγS (19). FIG. 6C. Reconstituted GS activity requires GTP. GS activity in wild-type membranes or rho1-3 membranes complemented with 1 μg of GST-Rho1 was measured at 37° C. in the presence of the indicated guanine nucleotide (20 μM). Results are expressed as percent activity relative to GTPγS.\n18. Crude yeast extracts were prepared as described [Y. Kamada et al., (1995) Genes Dev. 9:1559], and stored at −80° C. in lysis buffer supplemented with 33% glycerol. Membrane fractions, where indicated, were obtained from crude extracts and 1,3-β-glucan synthase (GS) activity was measured as described in (2) with the following modifications: UDP-[^3H]glucose was used as the substrate and α-amylase (1 U/40 μl) was added to reaction mixtures to eliminate the contribution of [^3H]glucose incorporation into glycogen. For all GS assays, the mean and standard error for four experiments is shown.\n19. […]"}, "[4]": {"molecular_target": "T2, PKC1 (Saccharomyces cerevisiae, UniProt P24583)", "T2 construct": "made in house; host or cells: PKC1-HA immunoprecipitated from S. cerevisiae extract; GST-Rho1 from baculovirus-infected Sf9 cells", "T2 sequence (P24583 1-1151)": "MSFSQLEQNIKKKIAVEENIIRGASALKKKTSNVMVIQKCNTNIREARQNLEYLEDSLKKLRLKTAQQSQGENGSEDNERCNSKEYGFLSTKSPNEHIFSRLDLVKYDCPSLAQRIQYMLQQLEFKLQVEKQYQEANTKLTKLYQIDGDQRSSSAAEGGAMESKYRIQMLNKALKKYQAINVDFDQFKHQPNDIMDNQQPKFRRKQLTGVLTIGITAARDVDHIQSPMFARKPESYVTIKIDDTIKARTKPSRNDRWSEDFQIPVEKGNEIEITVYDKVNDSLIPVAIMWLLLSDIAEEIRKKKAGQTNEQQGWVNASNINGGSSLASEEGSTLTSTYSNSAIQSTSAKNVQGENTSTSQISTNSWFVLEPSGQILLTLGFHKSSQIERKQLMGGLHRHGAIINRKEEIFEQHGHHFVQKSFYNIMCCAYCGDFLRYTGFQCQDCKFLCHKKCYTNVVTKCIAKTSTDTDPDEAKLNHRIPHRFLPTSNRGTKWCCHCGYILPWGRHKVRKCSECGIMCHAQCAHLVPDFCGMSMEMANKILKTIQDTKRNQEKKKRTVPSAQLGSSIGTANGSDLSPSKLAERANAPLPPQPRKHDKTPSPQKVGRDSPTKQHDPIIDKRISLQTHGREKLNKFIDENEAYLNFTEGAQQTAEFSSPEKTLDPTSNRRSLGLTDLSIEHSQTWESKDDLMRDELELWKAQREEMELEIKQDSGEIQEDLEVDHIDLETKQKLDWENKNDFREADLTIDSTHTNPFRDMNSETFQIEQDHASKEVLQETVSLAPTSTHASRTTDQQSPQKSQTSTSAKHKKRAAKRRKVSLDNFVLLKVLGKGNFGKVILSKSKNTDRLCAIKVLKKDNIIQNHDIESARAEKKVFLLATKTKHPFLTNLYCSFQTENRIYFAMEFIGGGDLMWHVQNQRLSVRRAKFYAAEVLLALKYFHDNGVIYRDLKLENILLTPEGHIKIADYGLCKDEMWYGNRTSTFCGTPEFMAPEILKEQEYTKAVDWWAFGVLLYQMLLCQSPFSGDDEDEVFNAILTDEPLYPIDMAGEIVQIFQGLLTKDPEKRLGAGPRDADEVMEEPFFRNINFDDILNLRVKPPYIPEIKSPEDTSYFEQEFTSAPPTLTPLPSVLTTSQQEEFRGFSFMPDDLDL", "experiment": "PKC1 protein kinase assay with synthetic Bck1 peptide", "assay_type": "biochemical", "conditions": "with or without cofactors PS, DAG, Ca2+", "procedure": "as §1, §2, §3"}, "[5]": {"system": "CaGGTase", "experiment": "Km determination, prenylation (TCA precipitation) assay", "assay_type": "biochemical, Candida", "procedure": "Briefly, a DEAE FF column is used for the first chromatographic step. The fractions from the columns in the purification are assayed for both GGTase and Ftase. For GGTase, 0.2 μM CaRho and 0.5 μM GGPP are used. For the FTase assay, 0.5 μM N-ras and 0.5 μM FPP are used. Both reactions are for 20-30 minutes at 37° C. The GGTase activity and FTase activity overlapped on the intial chromatography step, although the FTase activity was slightly shifted to the later fractions. The majority of the GGTase activity is pooled and then run on a SourceQ column, which separates the FTase and GGTase activities.\nThe fractions from the columns in the purification are being assayed for both GGtase and FTase. For GGTase 0.2 uM CaRho and 0.5 uM GGPP are used. For the FTase assay 0.5 uM N-ras and 0.5 uM FPP are used. Both reactions are for 20-30 minutes at 37°.\nThe second column (20 mL) Source Q separated the FTase from the GGTase The salt gradient was stretched out for 10 column volumes and 3.5 mL fractions were collected. Fraction 16 and 17 were used for Km and IC50 studies by Marc P."}}, "data": [{"compound": "[Ca+2]", "note": "[Ca^2+]", "values": [{"measurement": "Stimulation of PKC1 by cofactor", "setting": "[1]", "value": "No additional stimulation"}]}, {"compound": "O=S(=O)(O)c1cc(Nc2nc(Nc3ccccc3)nc(N(CCO)CCO)n2)ccc1/C=C/c1ccc(Nc2nc(Nc3ccccc3)nc(N(CCO)CCO)n2)cc1S(=O)(=O)O", "note": "[Calcofluor white]", "values": [{"measurement": "Sensitivity of rho1 mutants to drug", "setting": "[2]", "value": "hypersensitivity"}]}, {"compound": "CCCCCCCCCCCCCC(=O)O[C@@H]1[C@@H](C)[C@@]2(O)[C@@H](C=C(CO)C[C@]3(O)C(=O)C(C)=C[C@@H]23)[C@@H]2C(C)(C)[C@]12OC(C)=O", "note": "[PMA, phorbol myristate acetate]", "values": [{"measurement": "Stimulation of PKC1 by cofactor", "setting": "[1]", "value": "No additional stimulation"}]}, {"compound": "GST-Rho1: recombinant glutathione-S-transferase-Rho1 fusion purified from Sf9 insect cells", "values": [{"measurement": "Restoration of GS activity", "setting": "[3]", "value": "restored fully"}, {"measurement": "Stimulation of PKC1 activity by recombinant GTPase", "setting": "[4]", "value": "did not stimulate PKC1 activity alone"}]}, {"compound": "diacylglycerol [DAG]", "values": [{"measurement": "Stimulation of PKC1 by cofactor", "setting": "[1]", "value": "No additional stimulation"}]}, {"compound": "echinocandin B", "values": [{"measurement": "Sensitivity of rho1 mutants to drug", "setting": "[2]", "value": "hypersensitivity"}]}, {"compound": "huRhoA: human RhoA GTPase, protein substrate", "values": [{"measurement": "Km Values", "setting": "[5]", "value": "Nor is human RhoA a substrate"}]}, {"compound": "phosphatidylserine", "values": [{"measurement": "Stimulation of PKC1 by cofactor", "setting": "[1]", "value": "strongly activated"}, {"measurement": "Concentration of PS that fully activated PKC1", "setting": "[1]; in the presence of GTPγS-bound GST-Rho1, data not shown", "value": "≤ 8", "unit": "µg/mL"}]}]}
